# Columns and labels:
# Male Sprague Dawley rats = test: Maximum tolerated dose (MTD) in male Sprague Dawley rats; type: in vivo, rat; details: oral, daily, 0.5, 5 and 10 mg per kg for twelve days; for effect on weight gain: FIG. 5
# Protocol: Male Sprague Dawley rats were given C-002, C-004, C-012, C-021, C-022, C-023, and C-028 orally and daily at doses of 0.5, 5 and 10 mg per kg for twelve days. The mortality and animal weight data were recorded.
# [1] = system: phosphate uptake in Caco-2 human intestinal epithelial cells; test: Dosage effect on phosphate uptake inhibition in Caco-2 cells; type: cell-based; details: concentrations from 1 to 100 μM, FIG. 2
# Protocol: Caco-2 cells were cultured in DMEM medium containing 20% Fetal Bovine Serum. Medium from the sub-confluent monolayer of Caco-2 cells was removed. The resulting cells were washed with either a sodium free buffer (137 mM choline chloride, 5.4 mM KCl, 2.8 mM CaCl2, 1.2 mM MgSO4, and 14 mM Tris-HCl at pH 7.4), or with a buffer that contained sodium (137 mM sodium chloride, 5.4 mM KCl, 2.8 mM CaCl2, 1.2 mM MgSO4, and 14 mM Tris-HCl at pH 7.4). After the wash, sodium or sodium free buffer comprising 1 μM of radiolabeled phosphate (K2H^32PO4,1 μCi/mL) and 100 μM of a small molecule having a phosphate group that was selected from the group containing Compounds 001-029 was added to the cells and they were incubated for 20 min at 37° C. Phosphate uptake was terminated by removing the uptake media and washing the cells with an ice-cold solution of 14 mM Tris-HCl, pH 7.4 that contained 137 mM of either choline chloride or sodium chloride. The monolayers of the cells were solubilized by the addition of a 1% solution of Triton X-100 to extract the radiolabeled phosphate. Aliquots of the radiolabeled phosphate were added to scintillation fluid and the radioactivity was determined by liquid scintillation counting. The difference between the assays using the two solutions with or without sodium represents the sodium dependent transport of phosphate.
# The procedure of example 1 was repeated using C-002, C-004, C-012, and C-028 at concentrations from 1 to 100 μM. The results were recorded as the percent of phosphate uptake inhibition versus concentration of the small molecule having a phosphate group.
# [2] = system: Caco-2 human epithelial cells; test: Caco-2 cell viability by ALAMAR BLUE stain reduction; type: cell-based; details: 100 μM compound, Caco-2 cells; FIG. 3; taken as nontoxic
# Protocol: Staining was performed with ALAMAR BLUE stain in the presence of 100 μM C-002, C-004, C-012, and C-028 cells to exclude compound toxicity in the phosphorus transport assay. Caco-2 cells were plated into a 96-well plate in concentrations which gave about 16,000 cells/well on the day of the test (e.g., 8000 cells/well for a 1 day growth, 4000 cells/well for a 2 day growth, 2000 cell/well for a 3 day growth). On the day of the test, old media was replaced by 80 μL of fresh media per well with either a 100 μM final concentration of the small molecule having a phosphate group in DMSO, or with 1% of DMSO in the control wells. Testing was performed in duplicate. ALAMAR BLUE stain (BioSource International, Inc., Cat#DAL1100) was added at a final concentration of 10% into each well according to manufacturer instructions. The cells were then incubated at 37° C. for another 18 or 24 hours, and the reduction of ALAMAR BLUE stain by vital cells was measured spectrophotometrically at 570 nm and 600 nm. The results were calculated as the percent of reduction using the formula in the manufacturer's manual (TREK Diagnostic Systems, PI-DIAL 1025/1100 Rev 1.0).
# [3] = system: Caco-2 human epithelial cells; test: Caco-2 cell viability by trypan blue exclusion; type: cell-based; details: 100 μM compound, one hour of incubation, sodium or sodium free buffer; FIG. 4
# Protocol: Trypan blue exclusion was used to determine the effect of C-002, 004, 012, and 028 on cell viability. The cells were plated in the same way as the ALAMAR BLUE stain test (see above). On the day of the test, media was removed, cells were washed with PBS and incubated with 100 μM (final concentration) of C-002, C-004, C-012 and C-028 in either a sodium free buffer (137 mM choline chloride, 5.4 mM KCl, 2.8 mM CaCl2, 1.2 mM MgSO4, and 14 mM Tris-HCl at pH 7.4), or with a buffer that contained sodium (137 mM sodium chloride, 5.4 mM KCl, 2.8 mM CaCl2, 1.2 mM MgSO4, and 14 mM Tris-HCl at pH 7.4). Testing was performed in duplicate. After 1 hour of incubation the cells were detached with trypsin/EDTA, transferred to an Eppendorf tube, and their viability was counted using 0.4% trypan blue stain (Invitrogen, Cat.#15250-061) in a 1:4 dilution with confocal microscopy.
compound,measurement,setting,value
O=P(O)(O)c1c(Cl)c(Cl)nc(Cl)c1Cl [C-002],mortality,Male Sprague Dawley rats,No death
same,effect on weight gain,Male Sprague Dawley rats,no significant effect
same,percent inhibition of phosphate uptake versus concentration,[1],increased with the concentration
same,percent difference in ALAMAR BLUE stain reduction after 18 and 24 hours,[2],virtually unchanged
same,viability of Caco-2 cells by trypan blue exclusion,[3],no significant effect
C=C(c1ccccc1)P(=O)(O)O [C-004],mortality,Male Sprague Dawley rats,No death
same,effect on weight gain,Male Sprague Dawley rats,no significant effect
same,percent inhibition of phosphate uptake versus concentration,[1],increased with the concentration
same,percent difference in ALAMAR BLUE stain reduction after 18 and 24 hours,[2],virtually unchanged
same,viability of Caco-2 cells by trypan blue exclusion,[3],no significant effect
Cc1csc(Nc2ccc([N+](=O)[O-])cc2)[n+]1CCC(O)(P(=O)(O)O)P(=O)(O)O [C-012],mortality,Male Sprague Dawley rats,No death
same,effect on weight gain,Male Sprague Dawley rats,no significant effect
same,percent inhibition of phosphate uptake versus concentration,[1],increased with the concentration
same,percent difference in ALAMAR BLUE stain reduction after 18 and 24 hours,[2],virtually unchanged
same,viability of Caco-2 cells by trypan blue exclusion,[3],no significant effect
O=P(O)(O)c1ccccc1OCCCl [C-021],mortality,Male Sprague Dawley rats,No death
same,effect on weight gain,Male Sprague Dawley rats,no significant effect
O=P(O)(O)c1ccccc1OCCCOc1ccccc1P(=O)(O)O [C-022],mortality,Male Sprague Dawley rats,No death
same,effect on weight gain,Male Sprague Dawley rats,no significant effect
O=P(O)(O)/C=C/c1ccccc1 [C-023],mortality,Male Sprague Dawley rats,No death
same,effect on weight gain,Male Sprague Dawley rats,no significant effect
O=P(O)(OC(c1ccccc1)C(F)(F)C(F)(F)C(F)(F)F)c1ccccc1 (centres unmarked) [C-028],mortality,Male Sprague Dawley rats,No death
same,effect on weight gain,Male Sprague Dawley rats,no significant effect
same,percent inhibition of phosphate uptake versus concentration,[1],increased with the concentration
same,percent difference in ALAMAR BLUE stain reduction after 18 and 24 hours,[2],virtually unchanged
same,viability of Caco-2 cells by trypan blue exclusion,[3],no significant effect
